What was measured:
[1] = tested on: mechanical (tactile) allodynia after L5 nerve ligation; assay: Rat Chung Model of Neuropathic Pain (Example 14); format: in vivo, Sprague Dawley rats
Text: The rat Chung model is an assay used in determining whether a compound is useful for the treatment of neuropathic pain (Kim and Chung, 1994; Chaplan et al., 1994).
In this study, male Sprague Dawley rats (145-165 g; Harlan) were anesthetized and the L5 nerve was isolated and ligated with silk suture material resulting in mechanical allodynia. […] The results were normalized and results are presented as % MPE ([…]) of the drug.

[2] = tested on: acetic acid-induced abdominal stretching; assay: Acetic Acid-induced Abdominal Constriction Model of Visceral Pain; format: in vivo, CD-1 mice; settings: 560 mg/kg oral; for number of abdominal stretches: not statistically significant (vehicle 13 to 16.2)
Procedure: The purpose of this assay was to determine whether Compound #8 reverses hypersensitivity in visceral, inflammatory and neuropathic models of pain.
Test compound and controls were dissolved in the appropriate volume of 0.5% HPMC or 10% solutol in 0.5% hydoxypropyl methylcellulose (HPMC). HPMC served as the vehicle for preparation of gabapentin solutions used as the positive control. Solutions were prepared to provide the final dose in a volume of 10 mL/kg orally (p.o.) for mice. Male CD-1 mice from Charles Rivers Laboratories (Portage, Me.), weighing between 25 and 30 grams at the time of study, were used for the acetic acid-induced abdominal stretching studies.
Mice in the acetic acid-induced abdominal stretching study were allowed 1 hr to acclimate to the testing room before the start of the study. Animals were housed in micro-isolator cages in groups of four rats per cage or 5 mice per cage with corncob bedding and free access to food and water. The environment was maintained at a constant temperature of 21° C., with a 12-hour light/dark cycle.
Animals used in the acetic acid-induced abdominal stretching test were maintained with original cage mates throughout the study period (four rats per cage, 5 mice per cage; cages were Nalgene® with corn cob bedding). Animals from several cages were randomly assigned across treatment groups; that is, mice in a given cage were pseudo-randomly assigned to different treatment groups. In all tests, the investigator performing the behavioral analysis was blinded to the treatment administered to any individual animal.
Mice were then given an i.p injection of 0.5 mL (2×0.25 mL/abdominal quadrant) of 0.6% acetic acid following 1 hr, 2 hrs, 3 hrs or 4 hours treatment with vehicle, compound or positive control. Five minutes after i.p acetic acid injection, 5 animals were placed into separate bell jars containing a small amount of bedding chips, and the number of abdominal stretches per animal was recorded for 5 minutes. This was repeated for each group (N=10 mice/group). […]

[3] = tested on: CFA induced thermal hypersensitivity (radiant heat paw withdrawal latency); assay: Complete Freund's Adjuvant (CFA)-induced Model of Inflammatory Pain; format: in vivo, Sprague-Dawley rats; settings: 560 mg/kg oral; 4 hr after oral administration
Procedure: Intraplantar injection of CFA in rats results in a long-lasting inflammatory reaction, characterized by edema and a pronounced hypersensitivity to both thermal and mechanical stimuli. This hypersensitivity peaks between 24-72 hours after injection and can last for several weeks. This assay predicts the analgesic, antiallodynic and/or antihyperalgesic effect of test compounds.
Test compound and controls were dissolved in the appropriate volume of 0.5% HPMC or 10% solutol in 0.5% hydoxypropyl methylcellulose (HPMC). Solutions were prepared to provide the final dose in a volume of 2.5 mL/kg or 5 mL/kg p.o. for rats. Male, Sprague-Dawley rats from Charles Rivers Laboratories (Portage, Me.), weighing between 250 and 350 grams at the time of study, were used for the CFA paw radiant heat studies.
Rats in the CFA study were moved to a testing room the day of the CFA injection, where they remained for the duration of the study. […]
On the day of study, rats were given a 100 μL (1 μg/μL) intraplantar injection of CFA (1:1 CFA:saline) into their left hindpaw. […] Percent Reversal of hyperalgesia was calculated for each animal as [(treatment response)−(post-CFA response)]/[(pre-CFA response)−(post-CFA response)]×100. Average % reversal of hyperalgesia was then calculated for each treatment group (n=5-6 rats/group). […]

| SMILES | time at which efficacy peaked ([1]; 120 mg/kg p.o.) | time at which efficacy was observed ([1]; 120 mg/kg p.o.) | time post-dosing at which efficacy was sustained ([1]; 120 mg/kg p.o.) | time at which efficacy peaked ([1]; 240 mg/kg, po) | time at which efficacy was observed ([1]; 240 mg/kg, po) | time post-dosing at which efficacy was sustained ([1]; 240 mg/kg, po) | effect on acetic acid-induced stretching ([2]; compared with vehicle- or gabapentin-treated mice) | peak reversal of thermal hypersensitivity (compared with the 24-hr post-CFA baseline) [3] | effect of positive control on mechanical allodynia ([1]; 480 mg/kg p.o.) | number of abdominal stretches ([2]; 2 hr after administration) | number of abdominal stretches ([2]; 3 hr after administration) |
| --- | --- | --- | --- | --- | --- | --- | --- | --- | --- | --- | --- |
| NS(=O)(=O)NC[C@H]1COc2cc(Cl)ccc2O1 [Compound #8, (2S)-(−)-N-(6-Chloro-2,3-dihydro-benzo[1,4]dioxin-2-ylmethyl)-sulfamide] | 1 h | 30 min | 4 h | 2 to 4 h | 30 min | 24 h | did not significantly modify acetic acid-induced stretching | 86.0% | – | – | – |
| NCC1(CC(=O)O)CCCCC1 [gabapentin, reference compound] | – | – | – | – | – | – | – | 68.6% | equivalent to the activity measured for Compound #8 at 240 mg/kg dosing | 11.00±1.5 stretches | 10.0±1.6 stretches |

From patent publication US8716231B2, “Use of benzo-fused heterocycle sulfamide derivatives for the treatment of pain” (Janssen Pharmaceutica NV, priority 2005, dated 2014)
